The text below walks through data of PMC8403366, “Functional significance of gain-of-function H19 lncRNA in skeletal muscle differentiation and anti-obesity effects” (Genome Medicine, 2021).

One data set concerns C57BL/6 J mice. Put plainly: RT-qPCR of H19 and Dmd in TA of treated mice. The format is in vivo, mouse. Particulars: male mice, n = 5. The protocol:
Total RNA was isolated from the snap-frozen samples using the RNeasy Plus Mini Kit (Qiagen). cDNA was synthesized from 1 μg of RNA using the iScript™ cDNA Synthesis Kit (Bio-Rad). Quantitative real-time PCR was performed using SsoAdvanced™ Universal SYBR® Green Supermix (Bio-Rad).
For orientation: Real-time PCR tracks product formation cycle by cycle.

The test system of another data set is iPSC-SkMC. Put plainly: Immunoblot of DMD, phosphorylated DMD and Ub-DMD in iPSC-SkMC. In kind it is cell-based, human. Particulars: for DMD phosphorylation / DMD protein levels / Ub-DMD: BMD iPSC-SkMC. An excerpt:
The human skin fibroblasts GM09503 (healthy donor), GM02298 (BMD patient), or GM04569 (BMD patient) were obtained from the Coriell Institute and reprogramed to iPSC by Baylor Human Stem Cell Core. Clinical information is summarized in Additional file 2: Table S2. iPSCs from patients with BMD were used to study the potential molecular mechanisms of DMD stability within pathological context. iPSCs were maintained in feeder-free conditions using the mTeSR™1 medium (Stemcell technologies) on hESC-Qualified Matrigel (Corning) coated plates at 37 °C with 5% CO2. H19 knockout iPSC cell lines were generated using the CRISPR-Cas9 genome editing system, as described previously. iPSCs transfected with sgRNAs were selected with puromycin (250 ng/ml) for 7 days. Emerging iPSC colonies were picked individually and further expanded in mTeSR™1 medium. The presence of targeted gene knockout was confirmed by further genotyping characterization and PCR product sequencing.
For myogenic differentiation, iPSCs were differentiated into skeletal muscle cells using Skeletal Muscle Differentiation Kit (Genea Biocells) according to the manufacturer’s protocol. Briefly, iPSCs were plated onto a collagen I coated plate and maintained for 6–10 days in Skeletal Muscle Induction Medium (Genea Biocells) until confluent. Dissociated myogenic precursors were then plated on a collagen I coated plate and cultured in Skeletal Myoblast Medium (Genea Biocells) for 6–8 days. When confluent, cells were maintained in Myotube Medium or Myotube Fusion Medium (Genea Biocells). Cryopreserved stocks of myoblasts Genea002 were obtained from Genea Biocells. Genea002 was initially maintained in Skeletal Myoblast Medium and changed to Myotube Medium or Myotube Fusion Medium when confluent.
(Immunoblotting shows a protein as a band on a membrane.)

In data set [1] the test system is interaction between H19 and DMD. Put plainly: RIP assay in iPSC-SkMC. The format is cell-based, human. Particulars: for interaction between H19 and DMD: iPSC-SkMC from healthy donor 09503 or BMD patient 02298; for interaction between HuR and Actin: specificity control.
A further data set concerns SNCA. Particulars: cited from earlier work. An excerpt:
(§1) SNCA plays important roles in Parkinson’s disease through mediating the aggregation of protofibrils. […] MRCKα is a se ...

In data set [2] the target is T1, DMD C-terminus (ZnF domain) WT (human, UniProt P11532 3046-3685). Put plainly: alpha assay competition. As to conditions: EMSA and RNA-protein binding: 50 mM Tris-HCl pH 7.9, 10% glycerol, 100 mM KCl, 5 mM MgCl2, 10 mM beta-ME, 0.1% NP-40, 30 C, 30 min (EMSA) or 1 h (dot blot) …. For orientation: A gel shift assay detects complexes by their altered migration in electrophoresis.

A further data set has as its system MRCKα. As to conditions: cited from earlier work.
From the text: as §1

Data set [3] deals with T1, DMD C-terminus (ZnF domain) WT. The data set can be described thus: alpha assay saturation. Particulars: EMSA and RNA-protein binding: 50 mM Tris-HCl pH 7.9, 10% glycerol, 100 mM KCl, 5 mM MgCl2, 10 mM beta-ME, 0.1% NP-40, 30 C, 30 min (EMSA) or 1 h (dot blot) ….
The target is the same in data set [4]. Put plainly: alpha assay competition; EMSA and RNA-protein binding: 50 mM Tris-HCl pH 7.9, 10% glycerol, 100 mM KCl, 5 mM MgCl2, 10 mM beta-ME, 0.1% NP-40, 30 C, 30 min (EMSA) or 1 h (dot blot); alpha assay conditions not in the material. Particulars: protein: recombinant, tags: His, label: 32P (EMSA), single strand.

Changes are numbered by the printed parent chain. Names and notes keep the numbering of the source.

T1 sequence (P11532 3046-3685): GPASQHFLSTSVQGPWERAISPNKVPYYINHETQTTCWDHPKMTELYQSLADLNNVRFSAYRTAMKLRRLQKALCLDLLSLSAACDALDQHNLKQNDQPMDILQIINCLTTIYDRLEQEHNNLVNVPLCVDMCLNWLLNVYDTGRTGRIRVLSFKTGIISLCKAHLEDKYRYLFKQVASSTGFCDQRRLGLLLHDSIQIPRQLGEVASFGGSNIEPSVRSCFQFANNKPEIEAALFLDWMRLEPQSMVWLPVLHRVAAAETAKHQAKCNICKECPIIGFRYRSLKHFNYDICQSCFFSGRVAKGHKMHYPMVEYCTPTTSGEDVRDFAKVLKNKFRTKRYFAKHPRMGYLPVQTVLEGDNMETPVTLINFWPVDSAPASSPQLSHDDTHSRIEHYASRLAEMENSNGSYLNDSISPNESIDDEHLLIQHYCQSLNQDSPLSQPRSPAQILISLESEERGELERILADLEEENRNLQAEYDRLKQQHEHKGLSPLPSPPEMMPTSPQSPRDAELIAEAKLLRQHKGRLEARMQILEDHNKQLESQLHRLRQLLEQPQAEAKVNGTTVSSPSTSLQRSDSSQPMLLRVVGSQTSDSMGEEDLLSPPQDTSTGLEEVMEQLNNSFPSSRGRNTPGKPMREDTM

“N-terminal-ELTNEIPAELTNEIPA-Linker-5'-[2'-F-U][2'-F-G][2'-F-G][2'-F-C][2'-F-C][2'-F-A][2'-F-A][2'-F-U][2'-F-G][2'-F-C][2'-F-C][2'-F-C][2'-F-U][2'-F-G][2'-F-G][2'-F-C][2'-F-U][2'-F-C][2'-F-A][2'-F-C][2'-F-A][2'-F-A][2'-F-A][2'-F-U][2'-F-A][2'-F-C][2'-F-C][2'-F-A][2'-F-C][2'-F-U]-3' [AGR-Scr, agrin peptide conjugated to scramble oligonucleotides; control, reference compound]”: in the data set with C57BL/6 J mice, the “expression of H19 in TA” value is recorded as “minimal effects” and the “expression of the Dmd transcript in TA” value is on record as “minimal effects”.

Turning to `N#Cc1c(C(F)(F)F)c([N+](=O)[O-])c(-c2cccc([N+](=O)[O-])c2)[nH]c1=O` [SC-D, SynuClean-D], in the data set with iPSC-SkMC, the DMD phosphorylation result is “reduced”, the DMD protein levels result is listed as “improved” and the Ub-DMD entry is listed as “reduced”. In addition, in the data set with iPSC-SkMC (iPSC-SkMC with exogenous expression of SNCA), the “phosphorylation of DMD” value is given as “attenuated”. In addition, in data set [1], the “interaction between H19 and DMD” value is reported as “significantly improved”; the “interaction between HuR and Actin” value is reported as “minimal effects”. Besides, in the data set on SNCA, the “SNCA aggregation in muscle tissues” value is on record as “reduces”.

For the molecule H19-WT mimic, the Kd (usually a measure of binding affinity in units of concentration) in data set [2] was determined as 130 nM.

On to `O=C(Nc1cn[nH]c1-c1ccccn1)c1nn(C2CCNCC2)cc1Cl` [BDP5290], for which, in the data set with iPSC-SkMC, the DMD phosphorylation entry was “reduced”, the DMD protein levels result is on record as “improved” and the Ub-DMD entry was “reduced”. Further, in data set [1], the “interaction between H19 and DMD” value is “significantly improved”; the “interaction between HuR and Actin” value is reported as “minimal effects”. Besides, in the data set on MRCKα, the IC50 (usually the concentration at which inhibition is half-maximal) was 10 nM.

In data set [3], human H19 sense transcript yielded a Kd of 71.1 nM.

Turning to “N-terminal-ELTNEIPAELTNEIPA-Linker-5'-[2’-F-C][2’-F-U][2’-F-C][2’-F-U][2’-F-U][2’-F-A][2’-F-C][2’-F-A][2’-F-A][2’-F-U][2’-F-C][2’-F-U][2’-F-G][2’-F-A][2’-F-G][2’-F-C][2’-F-U][2’-F-U][2’-F-U][2’-F-C][2’-F-C][2’-F-A][2’-F-C][2’-F-A][2’-F-G][2’-F-U][2’-F-U][2’-F-U][2’-F-C][2’-F-C]-3' [AGR-H19-Rlof, agrin peptide conjugated to H19 RNA loss-of-function mimic]”, in the data set with C57BL/6 J mice, the “expression of H19 in TA” value is reported as “minimal effects” and the “expression of the Dmd transcript in TA” value is recorded as “minimal effects”.

Turning to mouse H19 sense transcript, in data set [3], the Kd turned out to be 78.6 nM.

B1: hH19 1951-1980 WT (ssRNA)
RNA: CUUUGUUUCUGAGCUUUCCUGUCUUUCCUU
Consider B1, for which the Kd in data set [4] (biotin or unlabeled (alpha assay)) was 116 nM.

B2: hH19 1951-1980 Rgof (G1955A/G1971A) (ssRNA)
RNA: B1 RNA with G5A, G21A
With B2, the Kd in data set [4] is 14.9 nM.
